Consider seven compounds from US20110166078A1, “OLIGOSACCHARIDE COMPOUNDS FOR USE IN MOBILISING STEM CELLS” (ENDOTIS PHARMA, priority 2008, published 2011).

For one assay, the target named is FGF-2 (Homo sapiens, UniProt P09038). Description: FGF-2/heparin competition assay by SPR (Biacore). In kind it is binding. The settings on record: 10 nM FGF-2, biotinylated heparin, Sensorchip C1. The procedure:
(§1) Heparin or low molecular weight heparin (6 kDa) from SIGMA were biotinylated at the reducing end and immobilized on a Biacore sensorchip. Different concentrations of the compounds of the present invention were co-incubated at a fixed concentration of targets: FGF-2, PDGF-β, VEGF-A or SDF-1α for 30 minutes. The mixture was then injected onto the streptavidin control (control reference) and HP surfaces. Only free growth factor (GF) or chemokine, i.e. the target molecules not bound to compounds of the present invention, were trapped on the heparin surface. From the binding of free targets on heparin, the percentages of inhibition were calculated and then reported in function of compound concentrations. The plot was fitted with a four-parameter model and IC50 was calculated. The 0% inhibition value was obtained for the injection of the studied target in running-buffer, and the 100% inhibition value was obtained for the injection of the studied target co-incubated with 10 μM of low molecular weight heparin 6 kDa.
A FGF-2/heparin competition assay using the Biacore technology was performed in the following conditions: 10 nM FGF-2, biotinylated heparin, Reference Streptavidin, Sensorchip C1, PBS-T 0.02%, Regeneration NaCl 2M
(§2) IC50 values of compounds of the present invention were determined using the Biacore technology for the growth factor and chemokine/heparin competition assays that contained the following proteins: VEGF-A, SDF-1α, FGF-2 and PDGF-β.
(Surface plasmon resonance follows binding to a sensor surface in real time, without labels.)

Another assay deals with PDGF-β (Homo sapiens, UniProt P01127). Description: PDGF-β/heparin competition assay by SPR (Biacore). In kind it is binding. The settings on record: 10 nM PDGF-β, biotinylated heparin, Sensorchip C1. The procedure: as §1, with “kDa. A PDGF-β/heparin competition assay using the Biacore technology was performed using the following conditions: 10 nM PDGF-β, biotinylated heparin, Reference Streptavidin, Sensorchip C1, HBS-P, Regeneration NaCl 2M. IC50 values of compounds of the present invention were determined using the Biacore technology for the growth factor and chemokine/heparin competition assays that contained the following proteins: VEGF-A, SDF-1α, FGF-2 and PDGF-β.” for “kDa.”

In a further assay the target is T1, VEGF-A (Homo sapiens, UniProt P15692).
T1 sequence (P15692 27-191 isoform P15692-4): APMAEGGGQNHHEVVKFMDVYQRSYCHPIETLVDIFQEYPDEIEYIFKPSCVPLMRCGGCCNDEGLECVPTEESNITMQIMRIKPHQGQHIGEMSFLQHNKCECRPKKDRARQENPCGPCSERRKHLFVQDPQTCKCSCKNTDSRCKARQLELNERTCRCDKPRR
The experiment in a line: VEGF-A/heparin competition assay by SPR (Biacore). Format: binding. The settings on record: 10 nM VEGF-A, biotinylated low molecular weight heparin, Sensorchip SA. The procedure: as §1
A VEGF-A/heparin competition assay using the Biacore technology was performed using the following conditions: 10 nM VEGF-A, biotinylated low molecular weight heparin, Reference Streptavidin, Sensorchip SA, HBS-P, Regeneration NaCl 2M.
as §2

The target of the next assay is SDF-1α (Homo sapiens, UniProt P48061). The experiment in a line: SDF-1α/heparin competition assay by SPR (Biacore). In kind it is binding. The settings on record: 96 nM SDF-1α, biotinylated low molecular weight heparin (6 kDa), Sensorchip SA. The procedure: as §1
A SDF-1α/heparin competition assay using the Biacore technology was performed using the following conditions: 96 nM SDF-1α, biotinylated low molecular weight heparin (6 kDa), Reference Streptavidin, Sensorchip SA, HBS-P, Regeneration NaCl 2M
as §2

The subject of assay [1] is control and VEGF-A-stimulated angiogenesis (endothelial tubules, HUVEC/NHDF co-culture). Description: In vitro angiogenesis assay (endothelial tubule formation, AngioKit). Format: cell-based, human. The settings on record: 30 μM compound; anti-CD31 ELISA and AngioSys image analysis; FIGS. 13-15. An excerpt: These experiments are also known as endothelial tubule formation assays and they are used to evaluate the compound effects on in vitro angiogenesis (the neo-formation of blood vessels from pre-existing ones). This process is critical in tumour development as bloodstream brings all the necessary nutrients and oxygen to cancer cells.
The assay uses a commercially available product (AngioKit) specially designed for screening experiments. The product consists of a 24 or 96-well culture plate containing endothelial and fibroblast cells. A similar assay has been developed “in-house” using 48-well culture plates.
Endothelial cells will, on a ten-day period, develop into a branched network of endothelial tubules or “primitive” blood vessels. This process requires a co-culture with fibroblasts, these latter cells secreting essential growth factors for endothelial cells. At the end of the incubation period (about ten days), angiogenesis is monitored both by ELISA and image analysis software quantifying different blood vessel parameters (number and average length of tubules, field area, number of junctions for example). All reagents and material (except the oligosaccharide compounds, the VEGF-A and the 48-well plate AngioKits) are bought from TCS CellWorks (http://www.tcscellworks.co.uk) which provides: • 24 and 96-well plate AngioKits (including culture medium) • Anti-CD31 (a cell marker specifically expressed on endothelial cells) reagents for ELISA and tubule staining procedures. • AngioSys image analysis software
For home-made 48-well plate AngioKits, NHDF and HUVEC cells were independently purchased while TCS CellWorks culture medium and protocol were used.
The cell medium is replaced with fresh one (day 1) and cells are incubated at 37° C. with the compounds of interest (oligosaccharides and/or angiogenic proteins, such as growth factors). During the course of the experiment, the culture medium (including oligosaccharides and/or angiogenic proteins) is replaced at days 4 and 7.
At day 10, the assay is terminated by the labelling of endothelial cells by an ELISA procedure (indirect colorimetric titration of the endothelial cell number through dosage of the endothelial-specific CD31 marker) and the staining of endothelial tubules. Photographs of stained tubules are taken and analysed with the AngioSys image analysis software.
In the following assay the effects of compounds 239, 240, 246, 247, 248, 249, 252, 254, 255 and 257 on in vitro angiogenesis were measured (all compounds were added at the 30 μM concentration). […] For the data presented in FIG. 13, AngioSys image analyses are shown on FIG. 14. Photographs of endothelial tubules are shown on the side of the anti-CD31 ELISA (see FIGS. 13 and 15).

The term IC50 denotes the midpoint of a concentration-inhibition curve.

`C#CCCCOC1OC(COS(=O)(=O)O)C(OC2OC(C(=O)O)C(OC3OC(COS(=O)(=O)O)C(OC4OC(C(=O)O)C(OCc5ccccc5)C(OCc5ccccc5)C4OS(=O)(=O)O)C(OCc4ccccc4)C3NS(=O)(=O)O)C(OCc3ccccc3)C2OS(=O)(=O)O)C(OCc2ccccc2)C1NS(=O)(=O)O` (stereo not shown) [Compound 236]: the IC50 at FGF-2 amounted to 187 nM; on PDGF-β, 1350 nM; at VEGF-A, 310 nM; at SDF-1α it was 3600 nM.

With `C#CCCCOC1OC(COS(=O)(=O)[O-])C(OC2OC(C(=O)[O-])C(OC3OC(COS(=O)(=O)[O-])C(OC4OC(C(=O)[O-])C(OC5OC(COS(=O)(=O)[O-])C(OC6OC(C(=O)[O-])C(OCc7ccccc7)C(OCc7ccccc7)C6OS(=O)(=O)[O-])C(OC)C5NS(=O)(=O)[O-])C(OCc5ccccc5)C4OS(=O)(=O)[O-])C(OC)C3NS(=O)(=O)[O-])C(OCc3ccccc3)C2OS(=O)(=O)[O-])C(OC)C1NS(=O)(=O)[O-].[Na+].[Na+].[Na+].[Na+].[Na+].[Na+].[Na+].[Na+].[Na+].[Na+].[Na+].[Na+]` (stereo not shown) [Compound 246], the IC50 on FGF-2 turned out to be 167 nM; on PDGF-β, 194 nM; at VEGF-A, 59 nM; at SDF-1α, 865 nM. Besides, the “inhibition of control and/or VEGF-A-stimulated angiogenesis” value (“inhibition” for short) in assay [1] is on record as “inhibition of control and/or VEGF-A-stimulated angiogenesis”.

In the case of `C#CCCCOC1OC(COS(=O)(=O)[O-])C(OC2OC(C(=O)[O-])C(OC3OC(COS(=O)(=O)[O-])C(OC4OC(C(=O)[O-])C(OC5OC(COS(=O)(=O)[O-])C(OC6OC(C(=O)[O-])C(OC)C(OC)C6OS(=O)(=O)[O-])C(OCc6ccccc6)C5NS(=O)(=O)[O-])C(OC)C4OS(=O)(=O)[O-])C(OCc4ccccc4)C3NS(=O)(=O)[O-])C(OC)C2OS(=O)(=O)[O-])C(OCc2ccccc2)C1NS(=O)(=O)[O-].[Na+].[Na+].[Na+].[Na+].[Na+].[Na+].[Na+].[Na+].[Na+].[Na+].[Na+].[Na+]` (stereo not shown) [Compound 247], the IC50 on FGF-2 is over 100000 nM; on PDGF-β, 1690 nM; on VEGF-A, 45 nM; at SDF-1α, 430 nM. For the same compound, the “inhibition” value in assay [1] was “inhibition of control and/or VEGF-A-stimulated angiogenesis”.

Regarding `C#CCCCOC1OC(COS(=O)(=O)[O-])C(OC2OC(C(=O)[O-])C(OC3OC(COS(=O)(=O)[O-])C(OC4OC(C(=O)[O-])C(OC5OC(COS(=O)(=O)[O-])C(OC6OC(C(=O)[O-])C(OC)C(OC)C6OS(=O)(=O)[O-])C(OC)C5NS(=O)(=O)[O-])C(OC)C4OS(=O)(=O)[O-])C(OC)C3NS(=O)(=O)[O-])C(OC)C2OS(=O)(=O)[O-])C(OC)C1NS(=O)(=O)[O-].[Na+].[Na+].[Na+].[Na+].[Na+].[Na+].[Na+].[Na+].[Na+].[Na+].[Na+].[Na+]` (stereo not shown) [Compound 248], the IC50 stood at 1660 nM at FGF-2, 28000 nM at PDGF-β, 1670 nM on VEGF-A and 22600 nM at SDF-1α. Besides, the “inhibition” value in assay [1] is on record as “inhibition of control and/or VEGF-A-stimulated angiogenesis”.

With `C#CCCCOC1OC(COS(=O)(=O)[O-])C(OC2OC(C(=O)[O-])C(OC3OC(COS(=O)(=O)[O-])C(OC4OC(C(=O)[O-])C(OC5OC(COS(=O)(=O)[O-])C(OC6OC(C(=O)[O-])C(OCc7ccccc7)C(OCc7ccccc7)C6OS(=O)(=O)[O-])C(OCc6ccccc6)C5NS(=O)(=O)[O-])C(OCc5ccccc5)C4OS(=O)(=O)[O-])C(OCc4ccccc4)C3NS(=O)(=O)[O-])C(OCc3ccccc3)C2OS(=O)(=O)[O-])C(OC)C1NS(=O)(=O)[O-].[Na+].[Na+].[Na+].[Na+].[Na+].[Na+].[Na+].[Na+].[Na+].[Na+].[Na+].[Na+]` (stereo not shown) [Compound 249], the IC50 turned out to be 136 nM at FGF-2 and 225 nM on PDGF-β. For the same compound, the “inhibition” value in assay [1] is “inhibition of control and/or VEGF-A-stimulated angiogenesis”.

In the case of `C#CCCCOC1OC(COS(=O)(=O)[O-])C(OC2OC(C(=O)[O-])C(OC3OC(COS(=O)(=O)[O-])C(OC4OC(C(=O)[O-])C(OC5OC(COS(=O)(=O)[O-])C(OC6OC(C(=O)[O-])C(OCc7ccccc7)C(OCc7ccccc7)C6OS(=O)(=O)[O-])C(OCc6ccccc6)C5NS(=O)(=O)[O-])C(OC)C4OS(=O)(=O)[O-])C(OC)C3NS(=O)(=O)[O-])C(OCc3ccccc3)C2OS(=O)(=O)[O-])C(OCc2ccccc2)C1NS(=O)(=O)[O-].[Na+].[Na+].[Na+].[Na+].[Na+].[Na+].[Na+].[Na+].[Na+].[Na+].[Na+].[Na+]` (stereo not shown) [Compound 252], the IC50 came out at 121 nM at FGF-2 and 171 nM at PDGF-β. Further, in assay [1], the “inhibition” value is “inhibition of control and/or VEGF-A-stimulated angiogenesis”.

On to `C#CCCCOC1OC(COS(=O)(=O)[O-])C(OC2OC(C(=O)[O-])C(OC3OC(COS(=O)(=O)[O-])C(OC4OC(C(=O)[O-])C(OC5OC(COS(=O)(=O)[O-])C(OC6OC(C(=O)[O-])C(OCc7ccccc7)C(OCc7ccccc7)C6OS(=O)(=O)[O-])C(OCc6ccccc6)C5NS(=O)(=O)[O-])C(OCc5ccccc5)C4OS(=O)(=O)[O-])C(OC)C3NS(=O)(=O)[O-])C(OC)C2OS(=O)(=O)[O-])C(OC)C1NS(=O)(=O)[O-].[Na+].[Na+].[Na+].[Na+].[Na+].[Na+].[Na+].[Na+].[Na+].[Na+].[Na+].[Na+]` (stereo not shown) [Compound 255], for which the IC50 on FGF-2 was found to be 36 nM; on PDGF-β, 122 nM. Further, the “inhibition” value in assay [1] is recorded as “inhibition of control and/or VEGF-A-stimulated angiogenesis”.
